{"source": "ChEMBL document CHEMBL4177524", "about": "“Discovery of hepatitis B virus capsid assembly inhibitors leading to a heteroaryldihydropyrimidine based clinical candidate (GLS4)” (Bioorg Med Chem, 2017)", "key": {"[1]": {"assay": "Cytotoxicity in human HepG2.215 cells assessed as reduction in cell viability after 5 days by CCK8 assay", "assay_type": "cell-based, HepG2 2.2.15", "settings": "HepG2.2.15 cells"}, "[2]": {"system": "Hepatitis B virus", "assay": "Antiviral activity against telbivudine-resistant wild type hepatitis B virus infected in human Huh7 cells assessed as reduction in secreted DNA levels measured on day 7 by real-time PCR analysis", "assay_type": "functional, organism-based", "settings": "Huh-7, 168 h"}, "[3]": {"system": "Hepatitis B virus", "assay": "Antiviral activity against telbivudine-resistant hepatitis B virus harboring reverse transcriptase M204I mutant infected in human Huh7 cells assessed as reduction in secreted DNA levels measured on day 7 by real-time PCR analysis", "assay_type": "functional, organism-based", "settings": "Huh-7, 168 h"}, "[4]": {"system": "Hepatitis B virus", "assay": "Antiviral activity against telbivudine-resistant hepatitis B virus harboring reverse transcriptase M204I mutant infected in human Huh7 cells assessed as reduction in intracellular DNA levels measured on day 7 by real-time PCR analysis", "assay_type": "functional, organism-based", "settings": "Huh-7, 168 h"}, "[5]": {"system": "Hepatitis B virus", "assay": "Antiviral activity against telbivudine-resistant hepatitis B virus harboring reverse transcriptase L180M/M204V double mutant infected in human Huh7 cells assessed as reduction in secreted DNA levels measured on day 7 by real-time PCR analysis", "assay_type": "functional, organism-based", "settings": "Huh-7, 168 h"}, "[6]": {"system": "Hepatitis B virus", "assay": "Antiviral activity against telbivudine-resistant hepatitis B virus harboring reverse transcriptase L180M/M204V double mutant infected in human Huh7 cells assessed as reduction in intracellular DNA levels measured on day 7 by real-time PCR analysis", "assay_type": "functional, organism-based", "settings": "Huh-7, 168 h"}, "[7]": {"system": "Hepatitis B virus", "assay": "Antiviral activity against lamivudine-resistant hepatitis B virus harboring reverse transcriptase M204I mutant infected in human Huh7 cells assessed as reduction in secreted DNA levels measured on day 7 by real-time PCR analysis", "assay_type": "functional, organism-based", "settings": "Huh-7, 168 h"}, "[8]": {"system": "Hepatitis B virus", "assay": "Antiviral activity against lamivudine-resistant wild type hepatitis B virus infected in human Huh7 cells assessed as reduction in intracellular DNA levels measured on day 7 by real-time PCR analysis", "assay_type": "functional, organism-based", "settings": "Huh-7, 168 h"}, "[9]": {"system": "Hepatitis B virus", "assay": "Antiviral activity against lamivudine-resistant hepatitis B virus harboring reverse transcriptase M204I/V173L double mutant infected in human Huh7 cells assessed as reduction in intracellular DNA levels measured on day 7 by real-time PCR analysis", "assay_type": "functional, organism-based", "settings": "Huh-7, 168 h"}, "[10]": {"system": "Hepatitis B virus", "assay": "Antiviral activity against lamivudine-resistant wild type hepatitis B virus infected in human Huh7 cells assessed as reduction in secreted DNA levels measured on day 7 by real-time PCR analysis", "assay_type": "functional, organism-based", "settings": "Huh-7, 168 h"}, "[11]": {"system": "Hepatitis B virus", "assay": "Antiviral activity against lamivudine-resistant hepatitis B virus harboring reverse transcriptase M204I/V173L double mutant infected in human Huh7 cells assessed as reduction in secreted DNA levels measured on day 7 by real-time PCR analysis", "assay_type": "functional, organism-based", "settings": "Huh-7, 168 h"}, "[12]": {"system": "Hepatitis B virus", "assay": "Antiviral activity against hepatitis B virus infected in human HepG2.215 cells assessed as reduction in viral DNA replication measured on day 7 by real time PCR analysis", "assay_type": "functional, organism-based", "settings": "HepG2.2.15, 168 h"}, "[13]": {"system": "Hepatitis B virus", "assay": "Antiviral activity against lamivudine-resistant hepatitis B virus harboring reverse transcriptase M204I mutant infected in human Huh7 cells assessed as reduction in intracellular DNA levels measured on day 7 by real-time PCR analysis", "assay_type": "functional, organism-based", "settings": "Huh-7, 168 h"}, "[14]": {"molecular_target": "Core antigen (Hepatitis B virus) (UniProt Q03732)", "sequence (Q03732 as listed by the source)": "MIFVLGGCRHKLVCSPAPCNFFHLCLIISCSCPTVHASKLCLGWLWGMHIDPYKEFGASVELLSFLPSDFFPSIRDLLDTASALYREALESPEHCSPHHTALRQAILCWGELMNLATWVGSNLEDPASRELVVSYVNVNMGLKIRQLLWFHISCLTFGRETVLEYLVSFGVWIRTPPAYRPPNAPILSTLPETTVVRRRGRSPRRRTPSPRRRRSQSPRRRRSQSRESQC", "assay": "Inhibition of hepatitis B virus capsid assembly infected in human HepG2.215 cells assessed as reduction in viral DNA replication measured on day 7 by real time PCR analysis", "assay_type": "cell-based"}}, "note": "pEC50: −log10 of the molar value."}
{"smiles": "Nc1ncnc2c1ncn2CCOCP(=O)(O)O", "note": "[ADEFOVIR]", "values": [{"measurement": "CC50 at 120 h", "setting": "[1]", "result": 200, "unit": "µM"}]}
{"smiles": "Cc1cn([C@@H]2C[C@@H](O)[C@H](CO)O2)c(=O)[nH]c1=O", "note": "[TELBIVUDINE]", "values": [{"measurement": "pEC50", "setting": "[2]", "result": 6.24}, {"measurement": "pEC50", "setting": "[3]", "result": "< 4.70"}, {"measurement": "pEC50", "setting": "[4]", "result": "< 4.70"}, {"measurement": "pEC50", "setting": "[5]", "result": "< 4.70"}, {"measurement": "pEC50", "setting": "[6]", "result": "< 4.70"}, {"measurement": "CC50 at 120 h", "setting": "[1]", "result": "> 200", "unit": "µM"}]}
{"smiles": "Nc1ccn([C@@H]2CS[C@H](CO)O2)c(=O)n1", "note": "[LAMIVUDINE]", "values": [{"measurement": "pEC50", "setting": "[7]", "result": "< 4.70"}, {"measurement": "pEC50", "setting": "[8]", "result": 6.63}, {"measurement": "pEC50", "setting": "[9]", "result": "< 4.70"}, {"measurement": "pEC50", "setting": "[10]", "result": 7.26}, {"measurement": "pEC50", "setting": "[11]", "result": "< 4.70"}, {"measurement": "pEC50", "setting": "[12]", "result": 7.00}, {"measurement": "EC90", "setting": "[12]", "result": 2, "unit": "µM"}, {"measurement": "pEC50", "setting": "[13]", "result": "< 4.70"}, {"measurement": "CC50 at 120 h", "setting": "[1]", "result": 1020, "unit": "µM"}]}
{"smiles": "COC(=O)C1=C(C)NC(c2ncc(F)cc2F)=N[C@H]1c1ccc(F)cc1Cl", "values": [{"measurement": "EC90", "setting": "[14]", "result": 0.102, "unit": "µM"}]}
